In patent publication US6395896B2, “Pyridazine derivatives, manufacturing method and related composition” (Shiseido Co., Ltd., priority 1999, dated 2002):

Legend:
[1] = Drug stabilization effect (sequestering agent combination); set-up: key to Sunlight exposure (80 MJ) Appearance: A: No change; B: No almost change; C: Yes change; details: sequestering agent 0.03 alone, photostabilizer 0, amounts wt %
Protocol: Next, when combined with a sequestering agent, the photostabilization effect and appearance change of a composition for each drug was studied by the following evaluation formulation.
Each test sample was prepared. Appearance change of the samples exposed to sunlight (around 80 MJ) was observed (visual evaluation). Also, residual yield of a drug was measured by liquid chromatography.

[2] = Perfume stabilization effect (sequestering agent combination); set-up: key to Sunlight exposure (80 MJ) Smell evaluation: A: No change; B: No almost change; C: Yes change; details: sequestering agent 0.03 alone, photostabilizer 0, amounts wt %
Protocol: Next, for combinations with sequestering agent, photostabilization effect for each perfume was studied by the following evaluation formulation.
Each test sample was prepared. Smell change of samples exposed to sunlight (80 MJ) was observed (judgement by perfumier).

[3] = Pigment stabilization effect (sequestering agent combination); set-up: key to Sunlight exposure (80 MJ) Appearance: A: No change; B: No almost change; C: Yes change; key to Sunlight exposure (80 MJ) ΔE: color difference ΔE in Lab space vs. color before sunlight exposure; details: photostabilizer 0, amounts wt %
Protocol: First of all, the photostabilization effect and appearance changes of a composition for each pigment were studied by the following evaluation formulation.
Each test sample was prepared. Observation of appearance changes (visual evaluation) and measurement of color difference (ΔE) were carried out for samples exposed to sunlight (around 80 MJ).
Color difference was measured by Lab coordinate system with spectrophotometer. Color difference was calculated based on the color before sunlight exposure. Namely, from the measured value (L1,a1,b1) before sunlight exposure, color difference (ΔE) was calculated by following formula.

[4] = drug 2-o-α-α-glucopyranosyl-L-ascorbic acid 2.0
[5] = drug Dibutylhydroxytoluene 0.01
[6] = drug Dipotassium glycyrrhizinate 0.05
[7] = colorant Blue No. 1 0.0001, sequestering agent 0.03 alone
[8] = colorant Green No. 3 0.0001, sequestering agent 0.03 alone
[9] = colorant Red No. 106 0.0001, sequestering agent 0.02 alone
[10] = colorant Red No. 213 0.0001, sequestering agent 0.05 alone
[11] = colorant Red No. 227 0.0001, sequestering agent 0.02 alone
[12] = colorant Red No. 401 0.001, sequestering agent 0.1 alone
[13] = colorant Yellow No. 5 0.001, sequestering agent 0.02 alone
[14] = colorant Yellow No. 203 0.001, sequestering agent 0.02 alone
[15] = colorants Red No. 227 0.0001 + Yellow No. 203 0.0001, sequestering agent 0.02 alone
[16] = colorants Red No. 401 0.0001 + Green No. 3 0.00001, sequestering agent 0.03 alone
[17] = colorants Yellow No. 203 0.0001 + Yellow No. 5 0.0001, sequestering agent 0.01 alone

Sodium metaphosphate
Sunlight exposure (80 MJ) Appearance [1, 4]: C
Sunlight exposure (80 MJ) Residual yield [%] [1, 4]: 85.2%
Sunlight exposure (80 MJ) Appearance [1, 5]: C
Sunlight exposure (80 MJ) Residual yield [%] [1, 5]: 54.7%
Sunlight exposure (80 MJ) Appearance [1, 6]: B
Sunlight exposure (80 MJ) Residual yield [%] [1, 6]: 85.8%
Sunlight exposure (80 MJ) Smell evaluation ([2]; natural perfume Jasmine oil 0.03): C
Sunlight exposure (80 MJ) Smell evaluation ([2]; natural perfume Musk oil 0.03): C
Sunlight exposure (80 MJ) Smell evaluation ([2]; natural perfume Orange oil 0.03): C
Sunlight exposure (80 MJ) Smell evaluation ([2]; perfume Fruity 0.03): C
Sunlight exposure (80 MJ) Smell evaluation ([2]; perfume Muguet 0.03): C
Sunlight exposure (80 MJ) Smell evaluation ([2]; synthetic perfume Lilial 0.03): C
Sunlight exposure (80 MJ) Smell evaluation ([2]; synthetic perfume Oranthiol 0.03): C
Sunlight exposure (80 MJ) Appearance [3, 7]: C
Sunlight exposure (80 MJ) ΔE [3, 7]: 8.02
Sunlight exposure (80 MJ) Appearance [3, 8]: C
Sunlight exposure (80 MJ) ΔE [3, 8]: 2.02
Sunlight exposure (80 MJ) Appearance [3, 9]: C
Sunlight exposure (80 MJ) ΔE [3, 9]: 2.88
Sunlight exposure (80 MJ) Appearance [3, 10]: C
Sunlight exposure (80 MJ) ΔE [3, 10]: 3.71
Sunlight exposure (80 MJ) Appearance [3, 11]: C
Sunlight exposure (80 MJ) ΔE [3, 11]: 1.37
Sunlight exposure (80 MJ) Appearance [3, 12]: C
Sunlight exposure (80 MJ) ΔE [3, 12]: 7.07
Sunlight exposure (80 MJ) Appearance [3, 13]: C
Sunlight exposure (80 MJ) ΔE [3, 13]: 1.77
Sunlight exposure (80 MJ) Appearance [3, 14]: C
Sunlight exposure (80 MJ) ΔE [3, 14]: 2.74
Sunlight exposure (80 MJ) Appearance [3, 15]: C
Sunlight exposure (80 MJ) ΔE [3, 15]: 3.01
Sunlight exposure (80 MJ) Appearance [3, 16]: C
Sunlight exposure (80 MJ) ΔE [3, 16]: 4.23
Sunlight exposure (80 MJ) Appearance [3, 17]: C
Sunlight exposure (80 MJ) ΔE [3, 17]: 1.44
